In patent US10160867B2, “Benzoxaborole-containing coating resistant to cellulose-supportable fungus” (THE PENN STATE RESEARCH FOUNDATION, priority 2015, dated 2018):
Values after ≈ are worked out from the molar mass of the structure shown.

Tests used:
Penicillium purpurogenum = test: 3 day MIC, broth microdilution in 25% PDB; assay type: cell-based; details: 72 h; Penicillium purpurogenum; 25% PDB; read-out: 3 day MIC
Method: (§1) Stock solutions (concentrations of between 4,000 μg/mL to 10,000 μg/mL; stored at −18° C.) of the above antifungals were prepared in dimethyl sulfoxide (DMSO). The stock solutions were further diluted into sterile 25% potato dextrose broth (PDB) so that the diluted solutions could be used for the antifungal susceptibility studies. This way, a typical microdilution study would reach a final ratio of about 0.5-2% v/v of DMSO in 25% PDB.
(§2) Spore inocula were prepared in sterile distilled water with 0.1% Tween® 20 (a polysorbate surfactant), and a hemocytometer was used to determine the spore density. Typically, the spore inoculum was prepared fresh prior to each study, and the inoculum was appropriately diluted to a final concentration of 0.4-1×10^5 spores/mL or colony-forming unit (CFU)/mL in each study. The spore suspension can be stored in a refrigerator at 4° C. for up to one week.
(§3) The studies were performed in flat bottom, 96-well microtiter plates (Greiner Bio-One, Frickenhausen, Germany).
(§4) Plates sealed with clear polyester film (VWR, Radnor, Pa.) were incubated at a temperature of about 25° C. The progress of fungal growth was monitored at 48 hours and 72 hours.

[1] = test system: Penicillium brevicompactum; test: 3 day MIC, broth microdilution in 25% PDB; assay type: cell-based; details: 72 h, 25% PDB, read-out: 3 day MIC
Method: as §1, §2, §3, §4

Stachybotrys chartarum [2] = test: 3 day MIC, broth microdilution in 25% PDB; assay type: cell-based; details: 25% PDB; for MIC: 72 h, read-out: 3 day MIC
Method: as §1, §2, §3, §4

Penicillium corylophilum = test: 3 day MIC, broth microdilution in 25% PDB; assay type: cell-based; details: 72 h, 25% PDB, read-out: 3 day MIC
Method: as §1, §2, §3, §4

Penicillium chrysogenum [3] = test: 3 day MIC, broth microdilution in 25% PDB; assay type: cell-based; details: 72 h, 25% PDB, read-out: 3 day MIC
Method: as §1, §2, §3, §4

Alternaria alternata [4] = test: 3 day MIC, broth microdilution in 25% PDB; assay type: cell-based; details: 72 h, 25% PDB, read-out: 3 day MIC
Method: as §1, §2, §3, §4

[5] = commercially available fungicidal agents; cited from earlier work
Aspergillus niger = test: 3 day MIC, broth microdilution in 25% PDB; assay type: cell-based; details: 72 h
Outline: (§5)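 Modified CLSI M38-A2 broth microdilution; spore inoculum (in water with 0.1% Tween 20, counted by hemocytometer) at final 0.4-1×10^5 spores/mL. Compounds from DMSO stocks, final about 0.5-2% v/v DMSO. Sealed plates incubated at about 25° C; growth checked at 48 and 72 hours.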

Rhizopus spp. = test: 3 day MIC, broth microdilution in 25% PDB; assay type: cell-based; details: 72 h
Outline: as §5

Aureobasidium pullulans = test: 3 day MIC, broth microdilution in 25% PDB; assay type: cell-based; details: 72 h
Outline: as §5

Mucor spp. = test: 3 day MIC, broth microdilution in 25% PDB; assay type: cell-based; details: 72 h
Outline: as §5

Aspergillus flavus = test: 3 day MIC, broth microdilution in 25% PDB; assay type: cell-based; details: 72 h
Outline: as §5

Fusarium oxysparum ST-33 = test: 3 day MIC, broth microdilution in 25% PDB; assay type: cell-based; details: ST33, 72 h
Outline: as §5

Stachybotrys chartarum [6] = test: Fungus resistance test after painting over fungal growth (defacement rating); assay type: cell-based; details: painted over fungal growth, +100 μg/mL in Olympic Home paint
Source text: (§6) In this series of experiments, fungal growth was allowed to cover a painted surface (surface containing 2 coats of the unaltered paint) to a defacement rating of 3-5, forming a ‘contaminated surface’. […] The paint application was extended approximately 1-2 cm beyond the edge of the disc onto the NSA medium. Each formulation used a separate brush to avoid cross contamination. The re-painted discs were placed back into the humid environment with elevated temperature to encourage fungal growth.
(§7) This test was used to evaluate the ability of paint films containing antifungal additives to prevent the re-emergence of fungal growth after painting over existing growth.
(§8) Olympic® Home interior flat latex paint (PPG Industries, Pittsburgh, Pa.) and Valspar® QuikHide White flat interior paint (Valspar Corporation, Minneapolis, Minn.) were used for the experiments in this study unless specified. Stock solutions of the antifungal additives of interest were prepared in reagent grade dimethyl sulfoxide (DMSO; Alfa Aesar, Ward Hill, Mass.). Additives were spiked (by adding appropriate amounts of the antifungal stock solutions) into the liquid paint at specified concentrations. Samples of additive-spiked paint were vigorously mixed with a vortex mixer for at least one minute to insure uniform dispersion of the additive in the paint. […] Studies that used other brands of paint followed the same protocol as described for those using the Olympic® Home interior flat latex paint.
(§9) Test surfaces were prepared in triplicate. In most cases, the tested conditions were repeated on a different date, again in triplicate. […] Two coats of paint were applied with a polyester brush to completely cover both faces of the filter paper disc, allowing at least four hours drying time between coats.
(§10) Nutrient-Salts Agar (NSA) media was prepared according to ASTM method G21-13 in 100×15 mm sterile polystyrene petri dishes (VWR® Radnor, Pa.) with a solidified agar layer from 3 to 6 mm (⅛ to ¼ in.) in depth. The agar was allowed to solidify for at least 24 hours before being used. The painted test filter paper discs were placed in the center of the agar plates in a biosafety hood while wearing clean nitrile gloves.
(§11) The paint coatings were evaluated against three representative fungi: Stachybotrys chartarum, Penicillium chrysogenum, and Alternaria alternata. […] Fungal isolates of Alternaria alternata and Penicillium chrysogenum were obtained from the Plant Pathology and Environmental Microbiology Department at Penn State University.
(§12) A spore suspension of each of these fungi was prepared by pouring a 20-mL portion of autoclaved deionized water containing 0.01% Tween® 20 onto a subculture of each fungal species. Spores were counted with the use of a hemocytometer (Hausser Scientific, Horsham, Pa.) under a microscope. Spore suspensions of Stachybotrys chartarum and Penicillium chrysogenum were diluted to 1×10^6 spores/mL with autoclaved deionized water. Spore suspensions of Alternaria alternata were used “as is” in the range of 200,000 to 400,000 spores/mL.
(§13) Painted test surfaces were inoculated with a spray bottle or with a cotton-tipped applicator. To inoculate the sample with a spray bottle, the spore suspension was sprayed twice on the painted test discs with a spray bottle that delivered approximately 0.14 g of fluid per spray. To inoculate the sample with a cotton-tipped applicator, an autoclaved cotton-tipped applicator was submerged in approximately 400 μL of the inoculum solution and applied evenly over the surface of the painted test surface twice.

Penicillium chrysogenum [7] = test: as above; assay type: cell-based; details: painted over fungal growth, +200 μg/mL in Valspar QuikHide paint
Source text: as §6, §7, §8, §9, §10, §11, §12, §13

Alternaria alternata [8] = test: as above; assay type: cell-based; details: painted over fungal growth
Source text: as §6, §7, §8, §9, §10, §11, §12, §13

[9] = test system: Cladosporium cladosporioides; test: 3 day MIC, broth microdilution in 25% PDB; assay type: cell-based; details: 72 h
Outline: as §5

[10] = +100 μg/mL in Olympic Home paint, 14 days
[11] = +100 μg/mL in Olympic Home paint, 21 days

Row | Compound | MIC (Penicillium purpurogenum) | MIC [1] | MIC (Stachybotrys chartarum [2]) | MIC (Penicillium corylophilum) | MIC (Penicillium chrysogenum [3]) | MIC (Alternaria alternata [4]) | Solubility in water [5] | MIC (Aspergillus niger) | MIC (Rhizopus spp.) | MIC (Aureobasidium pullulans) | MIC (Mucor spp.) | MIC (Aspergillus flavus) | MIC (Fusarium oxysparum ST-33) | Average defacement rating ± standard deviation (Stachybotrys chartarum [6]; 7 days) | Average defacement rating ± standard deviation (Stachybotrys chartarum [6]; 14 days) | Average defacement rating ± standard deviation (Stachybotrys chartarum [6]; 21 days) | Average defacement rating ± standard deviation (Penicillium chrysogenum [7]; 7 days) | Average defacement rating ± standard deviation (Penicillium chrysogenum [7]; 14 days) | Average defacement rating ± standard deviation (Penicillium chrysogenum [7]; 21 days) | Average defacement rating ± standard deviation (Alternaria alternata [8]; [10]) | other results
1 | O=C1C2CC=CCC2C(=O)N1SC(Cl)(Cl)Cl (centres unmarked) [Captan] | 0.78 µg/mL (≈ 2.59 µM) | 0.78 µg/mL (≈ 2.59 µM) | 0.39 µg/mL (≈ 1.3 µM) | 0.78 µg/mL (≈ 2.59 µM) | 0.78 µg/mL (≈ 2.59 µM) | 1.6 µg/mL (≈ 5.32 µM) | 3.3 µg/mL (≈ 11 µM) | 16 µg/mL (≈ 53.2 µM) | 12.5 µg/mL (≈ 41.6 µM) | 0.8 µg/mL (≈ 2.66 µM) | 3.1 µg/mL (≈ 10.3 µM) | 25 µg/mL (≈ 83.2 µM) | 2 µg/mL (≈ 6.65 µM) | 0.0 ± 0.0 (6) | 0.0 ± 0.0 (6) | 0.0 ± 0.0 (6) | 0.0 ± 0.0 (9) | 0.0 ± 0.0 (9) | 0.0 ± 0.0 (9) | 2.5 ± 4.0 (9) | Average defacement rating ± standard deviation (Alternaria alternata [8]; +100 μg/mL in Olympic Home paint, 7 days): 3.6 ± 3.9 (9); Average defacement rating ± standard deviation (Alternaria alternata [8]; [11]): 2.4 ± 3.8 (9)
2 | N#Cc1c(Cl)c(Cl)c(Cl)c(C#N)c1Cl [Chlorothalonil, chlorothalonil] | 0.78 µg/mL (≈ 2.93 µM) | < 0.1 µg/mL | < 0.1 µg/mL | 0.39 µg/mL (≈ 1.47 µM) | < 0.1 µg/mL | 0.78 µg/mL (≈ 2.93 µM) | <100 µg/mL | 0.4 µg/mL (≈ 1.5 µM) | 0.8 µg/mL (≈ 3.01 µM) | – | 0.8 µg/mL (≈ 3.01 µM) | 0.2 µg/mL (≈ 0.752 µM) | – | 2.2 ± 2.1 (9) | 2.0 ± 1.7 (9) | 2.0 ± 1.7 (9) | 0.0 ± 0.0 (9) | 0.0 ± 0.0 (9) | 0.0 ± 0.0 (9) | – | 3 day MIC (Stachybotrys chartarum [2]): <0.1 µg/mL; Average defacement rating ± standard deviation (Alternaria alternata [8]; +1000 μg/mL in Olympic Home paint, 7 days): 0.5 ± 1.4 (9); Average defacement rating ± standard deviation (Alternaria alternata [8]; +1000 μg/mL in Olympic Home paint, 14 days): 0.2 ± 0.5 (9); Average defacement rating ± standard deviation (Alternaria alternata [8]; +1000 μg/mL in Olympic Home paint, 21 days): 0.1 ± 0.3 (9)
3 | OB1OCc2cc(Cl)ccc21 [Compound B8, 5-chloro-1,3-dihydro-2,1-benzoxaborol-1-ol] | 1.56 µg/mL (≈ 9.26 µM) | 0.4 µg/mL (≈ 2.38 µM) | 0.13 µg/mL (≈ 0.772 µM) | 0.78 µg/mL (≈ 4.63 µM) | – | 3.1 µg/mL (≈ 18.4 µM) | – | 0.25 µg/mL (≈ 1.48 µM) | 4 µg/mL (≈ 23.8 µM) | 0.125 µg/mL (≈ 0.742 µM) | 0.5 µg/mL (≈ 2.97 µM) | 1 µg/mL (≈ 5.94 µM) | 0.25 µg/mL (≈ 1.48 µM) | 7.0 ± 1.9 (9) | 6.4 ± 2.6 (9) | – | 2.3 ± 0.6 (9) | 0.0 ± 0.0 (9) | 0.0 ± 0.0 (9) | 3.4 ± 2.9 (9) | MIC [9]: 0.1 µg/mL (≈ 0.594 µM); Average defacement rating ± standard deviation (Alternaria alternata [8]; [11]): 3.0 ± 2.8 (9); Average defacement rating ± standard deviation (Alternaria alternata [8]; +200 μg/mL in Olympic Home paint, 7 days): 9.3 ± 1.2 (3); Average defacement rating ± standard deviation (Alternaria alternata [8]; +200 μg/mL in Olympic Home paint, 14 days): 7.3 ± 2.9 (3); Average defacement rating ± standard deviation (Alternaria alternata [8]; +200 μg/mL in Olympic Home paint, 21 days): 3.0 ± 0.9 (3)
